From patent publication US9776999B2, “Antiparisitic dihydroazole compounds and compositions comprising same” (MERIAL, INC., priority 2009, dated 2017)

Tested on: Ctenocephalides felis
Assay: Contact activity of compounds against fleas (Method B)
Conditions: adult fleas, treated filter paper; 72 hours assessment; test concentration of 100 ppm or less; versus untreated controls
Protocol: METHOD B: Screening Method to test Contact Activity of Compounds Against Fleas
A solution of the test compound was dispensed, using a pipette, onto filter paper placed into a glass vial. The filter paper was allowed to dry before infesting each vial with 10 adult Ctenocephalides felis. The treated Ctenocephalides felis were held in a controlled environment (24° C., 90-95% relative humidity) and assessment was performed at 24, 48 and 72 hours after application in comparison with untreated controls.

SMILES: CSCCNC(=O)c1ccc(C2=NOC(c3cc(C(F)(F)F)cc(C(F)(F)F)c3)(C(F)(F)F)C2)n2cccc12 (stereo not shown) [Compound 1.009, 5-[5-(3,5-Bistrifluoromethylphenyl)-5-trifluoromethyl-4,5-dihydroisoxazol-3-yl]-indolizine-8-carboxylic acid (2-methylthioethyl)-amide]
- control (Ctenocephalides felis, contact): at least 80%
